From ChEMBL document CHEMBL1122086, “Comparison of the inhibition of Escherichia coli and Lactobacillus casei dihydrofolate reductase by 2,4-diamino-5-(substituted-benzyl)pyrimidines: quantitative structure-activity relationships, X-ray crystallography, and computer graphics in structure-activity analysis” (J Med Chem, 1982)

Molecular target: T1, Dihydrofolate reductase (Escherichia coli) (UniProt P0ABQ4)
T1 sequence (whole entry): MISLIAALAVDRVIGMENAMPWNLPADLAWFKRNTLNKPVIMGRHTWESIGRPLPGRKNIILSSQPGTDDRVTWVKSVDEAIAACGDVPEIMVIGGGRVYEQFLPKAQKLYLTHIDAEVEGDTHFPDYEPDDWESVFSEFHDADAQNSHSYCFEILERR
Conditions: not given

Log 1/Ki app | Compound
6.2 | Nc1ncc(Cc2ccc([N+](=O)[O-])cc2)c(N)n1
6.92 | CS(=O)(=O)Oc1cccc(Cc2cnc(N)nc2N)c1
6.57 | Nc1ncc(Cc2ccc(OC(F)(F)F)cc2)c(N)n1
7.69 | COc1ccc(Cc2cnc(N)nc2N)cc1C(F)(F)F
6.97 | CC(=O)Nc1ccc(Cc2cnc(N)nc2N)cc1[N+](=O)[O-]

Molecular target: Dihydrofolate reductase (Lactobacillus casei) (UniProt P00381)
Conditions: Lacticaseibacillus casei
Description: Inhibitory activity against dihydrofolate reductase (DHFR) from Lactobacillus casei (expressed as log 1/Kiapp)

Sequence of Dihydrofolate reductase (Lactobacillus casei) (P00381 whole entry): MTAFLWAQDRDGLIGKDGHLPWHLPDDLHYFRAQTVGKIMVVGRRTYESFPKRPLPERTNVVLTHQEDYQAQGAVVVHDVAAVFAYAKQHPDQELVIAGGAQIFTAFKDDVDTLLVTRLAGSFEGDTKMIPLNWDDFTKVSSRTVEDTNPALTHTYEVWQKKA

Compound | Log 1/Ki app
Nc1ncc(Cc2ccc(Br)cc2)c(N)n1 | 6.21
COCCOc1ccc(Cc2cnc(N)nc2N)cc1OCCOC | 6.51
Nc1ncc(Cc2ccc([N+](=O)[O-])cc2)c(N)n1 | 6
CC(=O)Nc1ccc(Cc2cnc(N)nc2N)cc1 | 6.05
CCCCCCOc1ccc(Cc2cnc(N)nc2N)cc1 | 5.73
NC(=O)COc1cccc(Cc2cnc(N)nc2N)c1 | 5.96
Nc1ncc(Cc2ccc(O)c(O)c2)c(N)n1 | 5.84
Nc1ccc(Cc2cnc(N)nc2N)cc1 | 5.47
Cc1ccc(Cc2cnc(N)nc2N)cc1 | 5.83
CS(=O)(=O)Oc1cccc(Cc2cnc(N)nc2N)c1 | 5.92
Nc1ncc(Cc2ccc(F)cc2)c(N)n1 | 5.67
COCCOc1ccc(Cc2cnc(N)nc2N)cc1 | 6.05
COCCOc1cccc(Cc2cnc(N)nc2N)c1 | 6.12
CN(C)c1ccc(Cc2cnc(N)nc2N)cc1 | 6.17
CCCCCCCOc1ccc(Cc2cnc(N)nc2N)cc1 | 5.36
Nc1ncc(Cc2ccc(OC(F)(F)F)cc2)c(N)n1 | 6.3
Nc1ncc(Cc2cc(CO)cc(CO)c2)c(N)n1 | 5.73
CCCCOc1ccc(Cc2cnc(N)nc2N)cc1 | 6.37
COc1ccc(Cc2cnc(N)nc2N)cc1OC | 6.92
COc1ccc(Cc2cnc(N)nc2N)cc1C(F)(F)F | 7.3
CCCCOCc1cccc(Cc2cnc(N)nc2N)c1 | 5.49
COCCOc1c(OC)cc(Cc2cnc(N)nc2N)cc1OC | 6.26
Nc1ncc(Cc2cc(O)cc(O)c2)c(N)n1 | 3.38
CC(=O)Nc1ccc(Cc2cnc(N)nc2N)cc1[N+](=O)[O-] | 6

Next, values leading:

Log 1/Ki app | Compound
5.38 | Nc1ncc(Cc2cccc(F)c2)c(N)n1
5.2 | Nc1ncc(Cc2ccccc2)c(N)n1
6.67 | Nc1ncc(Cc2cccc(I)c2)c(N)n1
5.9 | Nc1ncc(Cc2cccc(Cl)c2)c(N)n1
6.19 | Nc1ncc(Cc2ccc(Cl)cc2)c(N)n1
5.64 | COCc1cccc(Cc2cnc(N)nc2N)c1
5.67 | Nc1ncc(Cc2cccc(CO)c2)c(N)n1
6.23 | Nc1ncc(Cc2cccc(Br)c2)c(N)n1
5.82 | Nc1ncc(Cc2cccc(O)c2)c(N)n1
6.16 | Nc1ncc(Cc2cccc(C(F)(F)F)c2)c(N)n1
5.78 | Cc1cccc(Cc2cnc(N)nc2N)c1
